The results in this text go back to US20250129120A1, “PEPTIDE HAVING ACTIVITY FOR PREVENTING HAIR LOSS OR PROMOTING HAIR GROWTH, AND USE THEREOF” (CAREGEN CO., LTD., priority 2021, published 2025).

Assay [1] relates to Keratin 19. Put plainly: RT-PCR of Keratin 19 expression in HHORSC. It is filed as cell-based, human. The conditions noted are these: peptide 500 nM, and 50 μM, 72 hours, FIG. 6. As for the experimental part: (§1) Specifically, HHORSC (human hair outer root sheath cell, Sciencell, USA) was seeded in a 6-well culture plate at 4×10^5 cells/well and then cultured in MSC complete medium (mesenchymal stem cell complete media) for 24 hours. Next, the medium was replaced with serum free MSC complete medium and cultured again for 24 hours. Then, the HHORSC was treated with the peptide of SEQ ID NO: 1 prepared in the Preparation Example at concentrations of 500 nM, […], and 50 μM, respectively, and cultured at 37° C. for 72 hours. As a positive control, EGF was treated at a concentration of 50 nM, and as a negative control, HHORSC without any treatment was used. After washing with PBS, RNA was isolated by treating with 300 ? of easy blue (intron, Korea). Then, cDNA was synthesized using a cDNA synthesis kit (enzynomics, Korea) by quantification using nano drop, and PCR was performed using primers for Ha3-II, Keratin 14, and Keratin 19 (the base sequences of primer are shown in Table 3 below) and PCR premix (enzynomics, Korea). Electrophoresis was performed on a 1.5% agarose gel, and the mRNAs of Ha3-II, Keratin 14, and Keratin 19 were detected using a band analysis system (Bio-Rad gel image system).

Assay [2] concerns p-ERK. Kind of assay: Western blotting of phosphorylated ERK in HHFDPC. It is filed as cell-based, human. Conditions: peptide 500 nM, 5 μM, and 50 µM, 24 hours, FIG. 2. As for the experimental part: (§2) First, phosphorylated forms of AKT and ERK, which act as signaling molecules related to the proliferation of HHFDPC, were confirmed through Western blotting. Specifically, HHFDPC as in [Experiment Example 1-1] above was seeded at 4×10^5 cells/well in a 6-well culture plate, cultured in MSC complete medium (mesenchymal stem cell complete media) for 24 hours, and then the medium was replaced with serum free MSC complete medium and cultured for another 24 hours. Then, the HHFDPC was treated with the peptide of SEQ ID NO: 1 prepared in the Preparation Example at concentrations of 500 nM, 5 μM, and 50 µM, respectively, and cultured at 37° C. for 24 hours. As a positive control, minoxidil was treated at a concentration of 1 μM, and as a negative control, HHFDPC without any treatment was used. Then, Western blotting was performed to detect phosphorylated AKT and phosphorylated ERK. After washing with PBS, the cells were treated with 100 ? of lysis buffer to destroy cells, thereby obtaining cell lysate. After electrophoresis using a 10% SDS-PAGE gel, it was transferred to a PVDF membrane and blocked using 5% skim milk at room temperature for 30 minutes. […] After washing again with 0.1% PBS-T (0.1% Tween-20 in PBS) three times for 15 minutes each, p-AKT and p-ERK were detected by treatment with ECL solution (GE Healthcare, USA).

The subject of assay [3] is LEF-1. Put plainly: RT-PCR of LEF-1 expression in HHFDPC. It is filed as cell-based, human. The conditions noted are these: peptide 500 nM, 5 μM, and 50 μM, 24 hours, FIG. 4. The procedure: (§3) Furthermore, in order to determine whether the β-catenin moves to the nucleus and is activated to affect proliferation and differentiation, whether the expression of LEF-1, c-Myc and cyclin D1 (cyclin D1), which act as downstream factors, increases with β-catenin activation was confirmed through RT-PCR. Specifically, in the same manner as the previous Western blotting experiment, HHFDPC cells were cultured, treated with the peptides of the Preparation Example of the present invention at concentrations of 500 nM, 5 μM, and 50 μM, respectively, and cultured at 37° C. for 24 hours. After washing the cells with PBS, RNA was isolated by treating them with 300 […] of easy blue (intron, Korea). Then, CDNA was synthesized using a cDNA synthesis kit (enzynomics, Korea) by quantifying it with nano drop, and PCR was performed using primers for LEF-1, c-Myc and cyclin D1 (base sequences of the primer are listed in Table 2 below) and PCR premix (enzynomics, Korea). Electrophoresis was performed on a 1.5% agarose gel, and then the mRNA of LEF-1, c-Myc and cyclin D1 was detected using a band analysis system (Bio-Rad gel image system).

Assay [4] deals with MSX2. Kind of assay: RT-PCR of MSX2 expression in HHGMC. The assay is classed as cell-based, human. Conditions: peptide 500 nM, 5 μM, and 50 μM, 72 hours, FIG. 7. The procedure: Specifically, HHGMC (human hair germinal matrix cell, Sciencell, USA) was seeded in a 6-well culture plate at 4×10^5 cells/well and then cultured in MSC complete medium (mesenchymal stem cell complete media) for 24 hours. Next, the medium was replaced with serum free MSC complete medium and cultured again for 24 hours. Then, the HHGMC was treated with the peptide of SEQ ID NO: 1 prepared in the Preparation Example at concentrations of 500 nM, 5 μM, and 50 μM, respectively, and cultured at 37° C. for 72 hours. As a positive control, EGF was treated at a concentration of 50 nM, and as a negative control, HHGMC without any treatment was used. After washing with PBS, RNA was isolated by treating with 300 ? of easy blue (intron, Korea). Next, cDNA was synthesized using a cDNA synthesis kit (enzynomics, Korea) by quantification using nano drop, and PCR was performed using primers for MSX2 (base sequences of the primer are listed in Table 4 below) and PCR premix (enzynomics, Korea). Electrophoresis was performed on a 1.5% agarose gel, and MSX2 mRNA was detected using a band analysis system (Bio-Rad gel image system).

The test system of assay [5] is cyclin D1. Put plainly: RT-PCR of cyclin D1 expression in HHFDPC. It is filed as cell-based, human. Conditions: peptide 500 nM, 5 μM, and 50 μM, 24 hours, FIG. 4. The procedure: as §3
Assay [6] concerns β-catenin. Put plainly: Western blotting of β-catenin moved to the nucleus in HHFDPC. The assay is classed as cell-based, human. The conditions noted are these: HHFDPC nuclear protein, peptide 500 nM, 5 μM, and 50 μM, 24 hours, FIG. 3. The procedure:
In addition, in addition to p-AKT and p-ERK, in order to confirm the activation of β-catenin, which is known to affect cell proliferation and differentiation, whether β-catenin moved into the nucleus was confirmed through Western blotting. Specifically, the HHFDPC as in [Experiment Example 1-1] was seeded in a 6-well culture plate at an amount of 4×10^5 cells/well, cultured in MSC complete medium (mesenchymal stem cell complete media) for 24 hours. Next, the medium was replaced with serum free MSC complete medium and cultured again for 24 hours. Then, the HHFDPC was treated with the peptide of SEQ ID NO: 1 prepared in the Preparation Example at concentrations of 500 nM, 5 μM, and 50 μM, respectively, and cultured at 37° C. for 24 hours. As a positive control, minoxidil was treated at a concentration of 1 μM, and as a negative control, HHFDPC without any treatment was used. After washing with PBS, proteins in the nucleus were isolated using a nuclear protein extraction kit (Thermo scientific, USA). After electrophoresis using a 10% SDS-PAGE gel, it was transferred to a PVDF membrane and blocked using 5% skim milk at room temperature for 30 minutes. […] After washing again with 0.1% PBS-T (0.1% Tween-20 in PBS) three times for 15 minutes each, β-catenin was detected by treatment with ECL solution (GE Healthcare, USA).

Assay [7] concerns HHFDPC (human hair follicle dermal papilla cells). Put plainly: MTT proliferation assay in dermal papilla cells. It is filed as cell-based. Conditions: peptide 500 nM, 5 μM, and 50 μM, 72 hours, vs untreated control, FIG. 1. The procedure: While culturing human hair follicle dermal dermal papilla cells (HHFDPC), the absorbance was measured after treatment with the peptide of the present invention to confirm whether there was an effect of promoting the proliferation of the HHFDPC dermal papilla cells.
Specifically, HHFDPC (Sciencell, USA) was seeded at 4×10^3 cells/well in a 96-well culture plate, cultured in MSC complete medium (mesenchymal stem cell complete media, Sciencell, USA) for 24 hours, and then the medium was replaced with serum free MSC complete medium and cultured for another 24 hours. Then, the HHFDPC was treated with the peptide of SEQ ID NO: 1 prepared in the Preparation Example at concentrations of 500 nM, 5 μM, and 50 μM, respectively, and cultured at 37° C. for 72 hours. As a positive control, minoxidil was treated at a concentration of 1 μM, and as a negative control, HHFDPC without any treatment was used. Then, 10 ? of 5 mg/mL MTT solution was added and cultured in a 37° C. CO2 incubator for 4 hours to stain the cells. After removing the medium, the cells were treated with 100 μl of DMSO and shaken for 10 minutes, and the number of HHFDPC cells was confirmed by measuring absorbance at a wavelength of 540 nm using a spectrophotometer.

Assay [8] has as its system Ha3-II. Kind of assay: RT-PCR of Ha3-II expression in HHORSC. It is filed as cell-based, human. The conditions noted are these: peptide 500 nM, 5 µM, and 50 μM, 72 hours, FIG. 6. As for the experimental part:
as §1

Assay [9] relates to p-AKT. Kind of assay: Western blotting of phosphorylated AKT in HHFDPC. The assay is classed as cell-based, human. The conditions noted are these: peptide 500 nM, 5 μM, and 50 µM, 24 hours, FIG. 2. The procedure:
as §2

Assay [10] relates to c-Myc. Put plainly: RT-PCR of c-Myc expression in HHFDPC. It is filed as cell-based, human. The conditions noted are these: peptide 500 nM, 5 μM, and 50 μM, 24 hours, FIG. 4. As for the experimental part:
as §3

Assay [11] concerns DKK-1 protein (dickkopf-related protein 1). Put plainly: Western blotting of DKK-1 protein in DHT-treated HHFDPC. It is filed as cell-based, human. The conditions noted are these: HHFDPC with DHT 100 nM; peptide 500 nM, 5 μM, and 50 μM; 24 hours; vs negative control (DHT only); FIG. 5. As for the experimental part: DKK-1 protein (dickkopf-related protein 1) is a hair loss-related protein known to be highly expressed in individuals with hair loss, especially male pattern hair loss, and its expression is known to be promoted by hormones such as DHT (Dihydrotestosterone). Accordingly, the expression of DKK-1 protein was induced by treating HHFDPC cells with DHT together with the peptide according to the Preparation Example of the present invention, and then the expression level of DKK-1 was measured through Western blotting to determine whether there was an effect of suppressing the expression of DKK-1 protein.
Specifically, HHFDPC as in [Experiment Example 1-1] was seeded in a 6-well culture plate at 4×10^5 cells/well and then cultured in MSC complete medium (mesenchymal stem cell complete media) for 24 hours. Next, the medium was replaced with serum free MSC complete medium and cultured again for 24 hours. In addition, the HHFDPC was treated with the peptide of SEQ ID NO: 1 prepared in Preparation Example at concentrations of 500 nM, 5 μM, and 50 μM, respectively, and at this time, DHT, an expression inducer of DKK-1 protein, was simultaneously treated at a concentration of 100 nM and then cultured at 37° C. for 24 hours. […] After washing again with 0.1% PBS-T (0.1% Tween-20 in PBS) three times for 15 minutes each, DKK-1 protein was detected by treatment with ECL solution (GE Healthcare, USA).

The subject of assay [12] is Keratin 14. Put plainly: RT-PCR of Keratin 14 expression in HHORSC. The conditions noted are these: peptide 500 nM, and 50 μM, 72 hours, FIG. 6. The assay is classed as cell-based, human. As for the experimental part:
as §1

As to “GGVPG [peptide of the present invention]”, the “amount of Keratin 19 mRNA” value in [1] is given as “increased further compared to the control group that did not receive any treatment”. Also, the “phosphorylation of ERK (p-ERK)” value in assay [2] is given as “increased compared to the control group not treated with the peptide”. The “amount of LEF-1 mRNA” value in assay [3] is listed as “increased further compared to the control group without any treatment”. In addition, the “amount of MSX2 mRNA” value in assay [4] is listed as “increased further compared to the untreated control group”. In assay [5], the “amount of cyclin D1 mRNA” value is given as “increased further compared to the control group without any treatment”. In addition, the “migration of β-catenin to the nucleus (activation of β-catenin)” value in assay [6] was “migration due to activation of β-catenin increased”. Further, the “proliferation of HHFDPC (absorbance at 540 nm, MTT)” value in assay [7] was “promoted depending on the concentration of the treated peptide”. In assay [8], the “amount of Ha3-II mRNA” value is “increased further compared to the control group that did not receive any treatment”. Further, the “phosphorylation of AKT (p-AKT)” value in [9] is reported as “increased compared to the control group not treated with the peptide”. Further, the “amount of c-Myc mRNA” value in assay [10] is given as “increased further compared to the control group without any treatment”. Also, the “amount of DKK-1 protein” value in [11] is listed as “reduced”. Further, the “amount of Keratin 14 mRNA” value in assay [12] is recorded as “increased further compared to the control group that did not receive any treatment”.
